Laboratory results reported in patent US10513523B2, “Imidazopyrazines and pyrazolopyrimidines and their use as AMPA receptor modulators” (Janssen Pharmaceutica NV, priority 2015, dated 2019).

Target: GluA1o-γ8 (GRIA1o-CACNG8 fusion construct; TARP γ8 dependent AMPA receptor) (Homo sapiens (Human), UniProt P42261+Q8WXS5)
Assay: Calcium flux assay (FLIPR), inhibition of glutamate response of GluA1o-γ8 channel
Assay type: cell-based
Conditions: HEK293 cells stably expressing GRIA1o-CACNG8 fusion; 15 μM glutamate; pIC50 = negative log of IC50 in molar; read-out: GluR1-γ8 (pIC50) (converted)
How it was run: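 Potency is the midpoint of a four-parameter logistic fit to control-normalized FLIPR calcium responses elicited by 15 μM glutamate. Stable HEK293 cells carried a fused GluA1o-γ8 construct and were preincubated with compound and calcium dye in pH 7.4 HEPES buffer.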

Sequence of GluA1o-γ8 (GRIA1o-CACNG8 fusion construct; TARP γ8 dependent AMPA receptor) (P42261 other isoform, or with tags, fused parts or gaps): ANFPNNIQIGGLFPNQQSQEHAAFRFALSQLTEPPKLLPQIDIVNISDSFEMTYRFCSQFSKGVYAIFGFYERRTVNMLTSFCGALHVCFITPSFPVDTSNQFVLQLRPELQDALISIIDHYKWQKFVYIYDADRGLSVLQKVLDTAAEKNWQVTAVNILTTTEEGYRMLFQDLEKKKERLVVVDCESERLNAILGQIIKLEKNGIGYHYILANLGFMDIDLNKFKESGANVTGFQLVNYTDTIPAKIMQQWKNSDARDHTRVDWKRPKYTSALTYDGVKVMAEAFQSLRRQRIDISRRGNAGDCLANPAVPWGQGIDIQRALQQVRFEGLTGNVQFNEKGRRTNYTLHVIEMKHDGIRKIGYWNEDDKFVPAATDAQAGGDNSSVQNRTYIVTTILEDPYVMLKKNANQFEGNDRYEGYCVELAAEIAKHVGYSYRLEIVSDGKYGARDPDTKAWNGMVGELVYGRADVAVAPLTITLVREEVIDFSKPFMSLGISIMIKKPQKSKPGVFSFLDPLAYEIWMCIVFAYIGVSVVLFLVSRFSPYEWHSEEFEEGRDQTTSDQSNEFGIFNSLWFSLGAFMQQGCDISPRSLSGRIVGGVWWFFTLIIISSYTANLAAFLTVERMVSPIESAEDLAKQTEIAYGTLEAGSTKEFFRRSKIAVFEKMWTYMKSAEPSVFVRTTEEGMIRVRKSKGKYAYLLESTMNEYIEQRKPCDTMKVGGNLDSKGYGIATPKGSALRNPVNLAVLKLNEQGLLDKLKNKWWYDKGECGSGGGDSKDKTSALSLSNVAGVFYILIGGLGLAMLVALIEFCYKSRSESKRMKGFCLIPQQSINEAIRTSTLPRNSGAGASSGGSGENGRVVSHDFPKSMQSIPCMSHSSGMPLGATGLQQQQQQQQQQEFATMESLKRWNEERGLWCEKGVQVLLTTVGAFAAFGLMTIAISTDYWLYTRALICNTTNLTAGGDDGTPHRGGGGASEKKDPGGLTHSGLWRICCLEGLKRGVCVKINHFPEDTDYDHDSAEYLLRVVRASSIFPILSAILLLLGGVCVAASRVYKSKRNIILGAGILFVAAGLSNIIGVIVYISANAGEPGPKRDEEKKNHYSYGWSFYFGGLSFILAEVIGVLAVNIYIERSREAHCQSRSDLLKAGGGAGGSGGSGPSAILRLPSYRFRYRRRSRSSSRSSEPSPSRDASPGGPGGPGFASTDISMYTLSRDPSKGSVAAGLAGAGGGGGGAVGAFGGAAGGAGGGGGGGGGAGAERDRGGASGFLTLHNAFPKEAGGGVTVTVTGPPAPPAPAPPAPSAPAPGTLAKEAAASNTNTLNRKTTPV

| IC50 [nM] | SMILES |
| --- | --- |
| 3.16 | CC1(O)CN(c2nccc3c(-c4ccc5c(c4)CC(=O)N5)c(-c4ccc(F)cc4)nn23)C1 [Example 184, 5-[2-(4-Fluorophenyl)-7-(3-hydroxy-3-methyl-azetidin-1-yl)pyrazolo[1,5-c]pyrimidin-3-yl]indolin-2-one] |
| 398 | O=c1[nH]c2ccc(-c3c(C4CC4)nn4cnc(C(F)(F)F)cc34)cc2s1 [Example 230, 6-[2-Cyclopropyl-5-(trifluoromethyl)pyrazolo[1,5-c]pyrimidin-3-yl]-3H-1,3-benzothiazol-2-one] |
| 0.0631 | O=C1Cc2cc(-c3c(-c4ccccc4)nc4c(N5CCC(F)CC5)nccn34)ccc2N1 [Example 75, 5-[8-(4-Fluoro-1-piperidyl)-2-phenyl-imidazo[1,2-a]pyrazin-3-yl]indolin-2-one] |
| 79.4 | Fc1ccc(-c2nc3c(N4CCOCC4)nccn3c2-c2ccc3[nH]nnc3c2)cc1 [Example 30, 4-[3-(1H-Benzotriazol-5-yl)-2-(4-fluorophenyl)imidazo[1,2-a]pyrazin-8-yl]morpholine] |
| 25.1 | Oc1ccc(-c2c(Cc3ccccc3)nc3c(N4CCOCC4)nccn23)cc1 [Example 15, 4-(2-Benzyl-8-morpholino-imidazo[1,2-a]pyrazin-3-yl)phenol] |
| 501 | CC(C)(C)c1nn2cnc(C(F)(F)F)cc2c1-c1ccc2c(c1)CC(=O)N2 [Example 225, 5-[2-tert-Butyl-5-(trifluoromethyl)pyrazolo[1,5-c]pyrimidin-3-yl]indolin-2-one] |
| 126 | CC(C)(C)c1nc2c(N3CCC(O)CC3)nccn2c1-c1ccc2c(c1)CC(=O)N2 [Example 88, 5-[2-tert-Butyl-8-(4-hydroxy-1-piperidyl)imidazo[1,2-a]pyrazin-3-yl]indolin-2-one] |
| 39.8 | O=c1ccc2cc(-c3c(-c4ccc(F)cc4)nc4c(N5CCOCC5)nccn34)ccc2[nH]1 [Example 125, 6-[2-(4-Fluorophenyl)-8-morpholino-imidazo[1,2-a]pyrazin-3-yl]-1H-quinolin-2-one] |
| 79.4 | COc1nccn2c(-c3ccc4c(c3)CC(=O)N4)c(-c3ccc(F)cc3)nc12 [Example 247, 5-[2-(4-Fluorophenyl)-8-methoxy-imidazo[1,2-a]pyrazin-3-yl]indolin-2-one] |
| 31.6 | N#Cc1ccc(-c2nc3c(N4CCOCC4)nccn3c2-c2ccc(O)cc2)cc1 [Example 95, 4-[3-(4-Hydroxyphenyl)-8-morpholino-imidazo[1,2-a]pyrazin-2-yl]benzonitrile] |
| 31.6 | CC(C)Oc1nccc2c(-c3ccc4c(c3)CC(=O)N4)c(-c3ccccc3)nn12 [Example 194, 5-(7-Isopropoxy-2-phenyl-pyrazolo[1,5-c]pyrimidin-3-yl)indolin-2-one] |
| 3.16 | Cc1cc2c(-c3ccc4c(c3)CC(=O)N4)c(-c3ccccc3)nn2c(N2CCOCC2)n1 [Example 198, 5-(5-Methyl-7-morpholino-2-phenyl-pyrazolo[1,5-c]pyrimidin-3-yl)indolin-2-one] |
| 0.0794 | O=C1CCN(c2nccc3c(-c4ccc5c(c4)CC(=O)N5)c(-c4ccc(F)cc4)nn23)CC1 [Example 174, 5-[2-(4-Fluorophenyl)-7-(4-oxo-1-piperidyl)pyrazolo[1,5-c]pyrimidin-3-yl]indolin-2-one] |
| 0.2 | O=C1Cc2cc(-c3c(-c4ccc(F)cc4)nc4c(N5CCC6(CC5)OCCO6)nccn34)ccc2N1 [Example 55, 5-[8-(1,4-Dioxa-8-azaspiro[4.5]decan-8-yl)-2-(4-fluorophenyl)imidazo[1,2-a]pyrazin-3-yl]indolin-2-one] |
| 1.26 | CC1(O)CN(c2nccn3c(-c4ccc5c(c4)CC(=O)N5)c(-c4ccc(F)cc4)nc23)C1 [Example 67, 5-[2-(4-Fluorophenyl)-8-(3-hydroxy-3-methyl-azetidin-1-yl)imidazo[1,2-a]pyrazin-3-yl]indolin-2-one] |
| 501 | O=c1[nH]c2ccc(-c3c(-c4ccccc4)nn4cnc(C(F)(F)F)cc34)cc2o1 [Example 223, 6-[2-Phenyl-5-(trifluoromethyl)pyrazolo[1,5-c]pyrimidin-3-yl]-3H-1,3-benzoxazol-2-one] |
| 316 | O=C(NC1CC1)c1nc2c(N3CCOCC3)nccn2c1-c1ccc2[nH]c(=O)[nH]c2c1 [Example 146, N-Cyclopropyl-8-morpholino-3-(2-oxo-1,3-dihydrobenzimidazol-5-yl)imidazo[1,2-a]pyrazine-2-carboxamide] |
| 0.2 | CC(=O)N1CCN(c2nccn3c(-c4ccc5[nH]ncc5c4)c(-c4ccc(F)cc4)nc23)CC1 [Example 13, 1-[4-[2-(4-Fluorophenyl)-3-(1H-indazol-5-yl)imidazo[1,2-a]pyrazin-8-yl]piperazin-1-yl]ethanone] |
| 6.31 | O=C1Cc2cc(-c3c(C(=O)Nc4ccccc4)nc4c(N5CCOCC5)nccn34)ccc2N1 [Example 137, 8-Morpholino-3-(2-oxoindolin-5-yl)-N-phenylimidazo[1,2-a]pyrazine-2-carboxamide] |
| 0.158 | O=C1Cc2cc(-c3c(-c4ccc(F)cc4)nc4c(N5CCC6(CC5)N=N6)nccn34)ccc2N1 [Example 185, 5-(2-(4-Fluorophenyl)-8-(1,2,6-triazaspiro[2.5]oct-1-en-6-yl)imidazo[1,2-a]pyrazin-3-yl)indolin-2-one] |
| 0.501 | O=C1Cc2cc(-c3c(-c4ccc(F)c(F)c4)nc4c(N5CCOCC5)nccn34)ccc2N1 [Example 35, 5-[2-(3,4-Difluorophenyl)-8-morpholino-imidazo[1,2-a]pyrazin-3-yl]indolin-2-one] |
| 5.01 | CN(c1nccn2c(-c3ccc4c(c3)CC(=O)N4)c(-c3ccc(F)cc3)nc12)C1CC1 [Example 46, 5-[8-[Cyclopropyl(methyl)amino]-2-(4-fluorophenyl)imidazo[1,2-a]pyrazin-3-yl]indolin-2-one] |
| 200 | O=C1Cc2cc(-c3c(-c4ccncc4)nc4c(N5CC(F)C5)nccn34)ccc2N1 [Example 89, 5-[8-(3-Fluoroazetidin-1-yl)-2-(4-pyridyl)imidazo[1,2-a]pyrazin-3-yl]indolin-2-one] |
| 15.8 | O=c1[nH]c2ccc(-c3c(C4CCC4)nn4cnc(C(F)(F)F)cc34)cc2s1 [Example 229, 6-[2-Cyclobutyl-5-(trifluoromethyl)pyrazolo[1,5-c]pyrimidin-3-yl]-3H-1,3-benzothiazol-2-one] |
| 398 | CS(=O)(=O)c1nccn2c(-c3ccc4c(c3)CC(=O)N4)c(-c3ccc(F)cc3)nc12 [Example 127, 5-[2-(4-Fluorophenyl)-8-methylsulfonyl-imidazo[1,2-a]pyrazin-3-yl]indolin-2-one] |
| 31.6 | O=C(Nc1ccccn1)c1nc2c(N3CCOCC3)nccn2c1-c1ccc2[nH]c(=O)[nH]c2c1 [Example 221, 8-Morpholino-3-(2-oxo-1,3-dihydrobenzimidazol-5-yl)-N-(2-pyridyl)imidazo[1,2-a]pyrazine-2-carboxamide] |
| 3.16 | CC(=O)N1CCN(c2nccn3c(-c4ccc(O)cc4)c(-c4ccc(Cl)cc4)nc23)CC1 [Example 94, 1-[4-[2-(4-Chlorophenyl)-3-(4-hydroxyphenyl)imidazo[1,2-a]pyrazin-8-yl]piperazin-1-yl]ethanone] |
| 1.26 | CO[C@H]1CCN(c2nccc3c(-c4ccc5c(c4)CC(=O)N5)c(-c4ccccc4)nn23)C1 [Example 197, 5-[7-[(3S)-3-Methoxypyrrolidin-1-yl]-2-phenyl-pyrazolo[1,5-c]pyrimidin-3-yl]indolin-2-one] |
